Reference: patent publication US20130011378A1, “Stable formulations of a hyaluronan-degrading enzyme” (priority 2011, published 2013)

Experiments:
rHuPH20 [1] = biological target: T1, rHuPH20 (Homo sapiens, UniProt P38567); assay: Determination of hyaluronidase activity of rHuPH20, turbidimetric assay (Example 2, variant not specified); format: biochemical; conditions: for Effect on rHuPH20 enzymatic activity: stabilizer screening in rHuPH20/insulin formulation, semi-quantitative in comparison with NaCl, samples incubated at 30° C. for about one week
T1 construct: made in house; host or cells: CHO cells (DG44 CHO, HZ24 plasmid, clone 2B2)
T1 sequence (P38567 36-482): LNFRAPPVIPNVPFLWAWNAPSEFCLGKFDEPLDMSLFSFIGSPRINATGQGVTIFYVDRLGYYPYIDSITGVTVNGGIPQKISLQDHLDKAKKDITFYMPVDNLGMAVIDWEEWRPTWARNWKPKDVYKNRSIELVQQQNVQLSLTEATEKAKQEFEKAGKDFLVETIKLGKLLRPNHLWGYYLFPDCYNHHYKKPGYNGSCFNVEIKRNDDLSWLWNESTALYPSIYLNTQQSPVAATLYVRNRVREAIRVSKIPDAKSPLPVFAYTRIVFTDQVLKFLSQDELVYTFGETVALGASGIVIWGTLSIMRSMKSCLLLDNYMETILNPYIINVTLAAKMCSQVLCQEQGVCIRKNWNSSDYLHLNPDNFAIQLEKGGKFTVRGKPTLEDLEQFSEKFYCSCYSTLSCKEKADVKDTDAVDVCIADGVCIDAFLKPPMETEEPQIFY

[2] = RP-HPLC: insulin apparent solubility / percent recovery; conditions: stabilizer screening in rHuPH20/insulin formulation, semi-quantitative in comparison with NaCl; RP-HPLC, samples stored at 5° C.
Method: Apparent solubility was measured as the percent insulin recovery as compared to the initial formulations/conditions.
Samples were prepared by withdrawing 100 μL from each vial at every time point and centrifuging prior to loading. Samples were stored in an autosampler at 4° C. prior to use, and were considered stable for 3 days after preparation. All samples were tested in duplicate.
For insulin, 20 μL was injected for each HPLC run.
To determine the apparent solubility, the peak area of insulin/insulin analog main peak and desamido peak were integrated and combined together to calculate the percentage relative to the standards. […] The data were processed using Design-Expert® 7.0 (StatEase) and the “historical data” feature. Insulin percent purity was expressed as the percent of main insulin versus all insulin species.

rHuPH20 [3] = biological target: T1, rHuPH20; assay: RP-HPLC: rHuPH20 oxidation peaks (ox-1, ox-2); format: physicochemical; conditions: 0.02% surfactant, 30° C., 72 hours
From the text: The stability of hyaluronan degrading enzymes in a composition, such as in the co-formulations provided herein, also can be assessed using other methods and assays known in the art. […] Percent recovery is the relative percentage of the hyaluronidase in the co-formulation over time and at various storage conditions, as compared to a reference sample. […] An increase in particle size and a decrease in the melting temperature indicates denaturation and subsequent aggregation of the hyaluronidase. […] Other methods known to one of skill in the art that can be used to determine the stability of the hyaluronidase in the co-formulations provided herein, include polyacrylamide gel electrophoresis (PAGE), immunoblotting, nuclear magnetic resonance (NMR) spectroscopy, mass spectrometry, circular dichroism (CD) and dye-based fluorescence assays.
The formulations varied in the surfactant and surfactant concentration and the buffer (either histidine or phosphate).
Methionine oxidation can be prevented by addition of free methionine as a scavenger to react with potential oxidative compounds.

[4] = Non-denaturing SEC: percent main peak / aggregates of insulin and rHuPH20; format: physicochemical
Method: Reference samples were stored in HPLC vials at 10° C. prior to use.
Samples were stored in HPLC vials at 10° C. prior to use, for up to 3 days.
0.5× Phosphate Buffered Saline (PBS) solution was prepared by diluting 10×PBS with HPLC grade water.
Insulin percent purity was expressed as percentage of the insulin main peak versus the total insulin peaks. The target specification is less than 2% high molecular weight protein, i.e., insulin aggregates.
SEC was performed using the following conditions: 1× Phosphate Buffered Saline (PBS), a Toso BioScience G2000 SWXL column, and a flow rate set at 1 mL/min. Data were collected as described above and means were reported and entered into the design table following the sample sequence provided by the DOE software.

[5] = 35° C., Table 22 concentrations
[6] = t = 0, 100 μg/mL rHuPH20, pH 7.3, 140 mM NaCl, 0.01% polysorbate 80, preservative levels of Table 21, in U/mL

C[N+](C)(C)CC(=O)O [Betaine]
Effect on rHuPH20 enzymatic activity (rHuPH20 [1]): No effect
Effect on insulin solubility [2]: No effect

O=C([O-])c1ccccc1.[Na+] [Sodium Benzoate]
Effect on rHuPH20 enzymatic activity (rHuPH20 [1]): No effect

Polysorbate 80
% of Oxidation Peak 1 of rHuPH20 (rHuPH20 [3]; Methionine 0 mM): 4.01%
% of Oxidation Peak 1 of rHuPH20 (rHuPH20 [3]; Methionine 2 mM): 3.50%
% of Oxidation Peak 1 of rHuPH20 (rHuPH20 [3]; Methionine 10 mM): 3.44%
% of Oxidation Peak 1 of rHuPH20 (rHuPH20 [3]; Methionine 50 mM): 3.34%

COC(=O)c1ccc(O)cc1 [methylparaben]
Enzymatic Activity of rHuPH20 (rHuPH20 [1]; preservative 0.3%, 1 Week, 35° C.): 730 U/mL
% Main rHuPH20 peak by non-denaturing SEC ([4]; 4° C., Table 22 concentrations): 100.00%
% Main rHuPH20 peak by non-denaturing SEC [4, 5]: 96.91%

OCCCCCl [4-Chloro-1-butanol]
rHuPH20 activity (rHuPH20 [1]; 24 hours, 25° C., in U/mL): 3500
rHuPH20 activity (rHuPH20 [1]; 5 days, 25° C., in U/mL): 1440
rHuPH20 activity (rHuPH20 [1]; 6 days, 35° C.): <LOQ
rHuPH20 activity (rHuPH20 [1]; [6]): 11,350
% Main rHuPH20 peak by non-denaturing SEC ([4]; 4° C., 1 day): 97.89%
% Main rHuPH20 peak by non-denaturing SEC ([4]; 35° C., 1 day): <LOD

OC[C@@H](O)[C@@H](O)[C@H](O)[C@@H](O)CO [sorbitol]
Effect on rHuPH20 enzymatic activity (rHuPH20 [1]): No effect

C[N+](C)(C)[O-] [Trimethylamine oxide (TMAO)]
Effect on rHuPH20 enzymatic activity (rHuPH20 [1]): No effect
Effect on insulin solubility [2]: No effect

N=C(NCCCCCCNC(=N)NC(=N)Nc1ccc(Cl)cc1)NC(=N)Nc1ccc(Cl)cc1.O=C(O)[C@H](O)[C@@H](O)[C@H](O)[C@H](O)CO.O=C(O)[C@H](O)[C@@H](O)[C@H](O)[C@H](O)CO [Chlorhexidine digluconate]
rHuPH20 activity (rHuPH20 [1]; 24 hours, 25° C., in U/mL): 9520
rHuPH20 activity (rHuPH20 [1]; 48 hours, 4° C., preservative levels of Table 22, in U/mL): 12,090
rHuPH20 activity (rHuPH20 [1]; 48 hours, 35° C., preservative levels of Table 22, in U/mL): 13,110
rHuPH20 activity (rHuPH20 [1]; 5 days, 25° C., in U/mL): 12310
rHuPH20 activity (rHuPH20 [1]; 6 days, 35° C., in U/mL): 12270
rHuPH20 activity (rHuPH20 [1]; [6]): 9,590
% Main rHuPH20 peak by non-denaturing SEC ([4]; 4° C., 1 day): 98.35%
% Main rHuPH20 peak by non-denaturing SEC ([4]; 4° C., Table 22 concentrations): 99.77%
% Main rHuPH20 peak by non-denaturing SEC ([4]; 35° C., 1 day): 98.23%
% Main rHuPH20 peak by non-denaturing SEC [4, 5]: 98.30%

O[C@H]1[C@H](O)[C@@H](O)[C@H](O)[C@@H](O)[C@H]1O [Inositol]
Effect on rHuPH20 enzymatic activity (rHuPH20 [1]): No effect

OC[C@@H](O)[C@@H](O)[C@H](O)[C@H](O)CO [Mannitol]
Effect on rHuPH20 enzymatic activity (rHuPH20 [1]): No effect

OC[C@H]1O[C@@](CO)(O[C@H]2O[C@H](CO)[C@@H](O)[C@H](O)[C@H]2O)[C@@H](O)[C@@H]1O [Sucrose]
Effect on rHuPH20 enzymatic activity (rHuPH20 [1]): No effect

Benzalkonium Chloride
rHuPH20 activity (rHuPH20 [1]; 24 hours, 25° C., in U/mL): 10750
rHuPH20 activity (rHuPH20 [1]; 5 days, 25° C., in U/mL): 2710
rHuPH20 activity (rHuPH20 [1]; 6 days, 35° C.): <LOQ
rHuPH20 activity (rHuPH20 [1]; [6]): 11,740
% Main rHuPH20 peak by non-denaturing SEC ([4]; 4° C., 1 day): 99.64%
% Main rHuPH20 peak by non-denaturing SEC ([4]; 35° C., 1 day): <LOD
